From US9402819B2, “Anti-HIV compound and preparation method and use thereof” (Sichuan University, priority 2012, dated 2016)
Values after ≈ are worked out from the molar mass of the structure shown.

Experiments:
[1] = Cytotoxicity (CC50) in H9 cells; format: cell-based, human; settings: human
Protocol: (§1) The anti-HIV activity was determined by the “Guiding Principles of Anti HIV Drug Unclinical Pharmacodynamics” of SFDA which is tested by technology standard assay according to International Universal Standards and Methods. Where in CC50, EC50 were measured twice and took the average.

[2] = Cytotoxicity (CC50) in C8166 cells; format: cell-based; settings: human
Protocol: as §1

HIV-1IIIB [3] = assay: Anti-HIV activity in H9 cells; format: cell-based; settings: for TI: CC50/EC50
Protocol: as §1

HIV-1IIIB [4] = assay: Anti-HIV activity in C8166 cells; format: cell-based; settings: for TI: CC50/EC50
Protocol: as §1

[5] = Human immunodeficiency virus 1, HIV-1IIIB, H9 cells, read-out: EC50
[6] = Human immunodeficiency virus 1, HIV-1IIIB, C8166 cells, read-out: EC50

Row | EC50 (HIV-1IIIB [3]; [5]) [µg/mL] | EC50 (HIV-1IIIB [4]; [6]) [µg/mL] | Structure (SMILES) | CC50 ([1]; H9 cells, read-out: CC50) [µg/mL] | CC50 [2] [µg/mL] | TI (HIV-1IIIB [3]; H9 cells) | TI (HIV-1IIIB [4]; C8166 cells) | CC50 [1] [µg/mL] | EC50 (HIV-1IIIB [3]; Human immunodeficiency virus 1, H9) [µg/mL] | EC50 (HIV-1IIIB [4]; Human immunodeficiency virus 1, C8166) [µg/mL]
1 | – | – | COc1ccccc1NC(=O)c1cc(C(F)(F)F)ccc1Sc1ccc([N+](=O)[O-])cc1 [Compound 22, N-(2-methoxyphenyl)-2-((4-nitrophenyl)thio)-5-(trifluoromethyl)benzamide] | > 200 | – | – | – | – | – | –
2 | 41.5 (≈ 109 µM) | – | Nc1cccc(NC(=O)c2c(N)cccc2Sc2ccc([N+](=O)[O-])cc2)c1 [Compound 49, 2-amino-N-(3-aminophenyl)-6-(4-nitroph-enylthio)benzamide] | > 200 | – | 4.82 | – | – | – | –
3 | 28.3 (≈ 68.9 µM) | – | COc1cc(N)ccc1NC(=O)c1c(N)cccc1Sc1ccc([N+](=O)[O-])cc1 [Compound 50, 2-amino-N-(4-amino-2-methoxyphenyl)-6-(4-nitrophenylthio)benzamide] | 81.1 (≈ 197 µM) | – | 2.87 | – | – | – | –
4 | 18.8 (≈ 44.3 µM) | – | COc1ccc(NC(=O)c2c(N)cccc2Sc2ccc([N+](=O)[O-])cc2)c(OC)c1 [Compound 51, 2-amino-N-(2,4-dimethoxyphenyl)-6-(4-nitrophenylthio)benzamide] | 18.1 (≈ 42.5 µM) | – | 0.96 | – | – | – | –
5 | 137 (≈ 256 µM) | 24.5 (≈ 45.7 µM) | COc1ccccc1NC(=O)c1c(NS(=O)(=O)c2ccccc2)cccc1Sc1ccc([N+](=O)[O-])cc1 [Compound 56, N-(2-methoxyphenyl)-2-(4-nitrophenylthio)-6-(phenylsulfonamido)benzamide] | > 200 | > 200 | >1.46 | >8.17 | – | – | –
6 | 16.8 (≈ 30.6 µM) | 14.1 (≈ 25.6 µM) | COc1ccccc1NC(=O)c1c(NS(=O)(=O)c2ccc(C)cc2)cccc1Sc1ccc([N+](=O)[O-])cc1 [Compound 57, N-(2-methoxyphenyl)-2-(4-methylphenylsulfonamido)-6-((4-nitrophenyl)thio)benzamide] | > 200 | 37.2 (≈ 67.8 µM) | >11.90 | 2.65 | – | – | –
7 | – | – | COc1ccccc1NC(=O)c1c(N(C)C)cccc1S(=O)(=O)c1ccc([N+](=O)[O-])cc1 [Compound 58, 2-(dimethylamino)-N-(2-methoxyphenyl)-6-((4-nitrophenyl)sulfonyl)benzamide] | > 200 | > 200 | – | – | – | – | –
8 | – | – | CNc1cccc(S(=O)(=O)c2ccc([N+](=O)[O-])cc2)c1C(=O)Nc1ccccc1OC [Compound 59, N-(2-methoxyphenyl)-2-(methylamino)-6-((4-nitrophenyl)sulfonyl)benzamide] | – | > 200 | – | – | – | – | –
9 | > 200 | 91.3 (≈ 157 µM) | COc1ccccc1NC(=O)c1c(NS(=O)(=O)c2ccc(C)cc2)cccc1S(=O)(=O)c1ccc([N+](=O)[O-])cc1 [Compound 60, N-(2-methoxyphenyl)-2-(4-methylphenyls-ulfonamido)-6-((4-nitrophenyl)sulfonyl)benzamide] | > 200 | > 200 | – | >2.19 | – | – | –
10 | – | – | COc1ccccc1NC(=O)c1c(NS(=O)(=O)c2ccccc2)cccc1S(=O)(=O)c1ccc([N+](=O)[O-])cc1 [Compound 61, N-(2-methoxyphenyl)-2-((4-nitrophenyl)sulfonyl)-6-(phenylsulfonamido)benzamide] | > 200 | > 200 | – | – | – | – | –
11 | 3.83 (≈ 8.24 µM) | 3.43 (≈ 7.38 µM) | COc1ccccc1NC(=O)c1c(Sc2ccc([N+](=O)[O-])cc2)cccc1N1CCNCC1 [Compound 62, N-(2-methoxyphenyl)-2-((4-nitrophenyl)thio)-6-(piperazinyl)benzamide] | 14.2 (≈ 30.6 µM) | 10.2 (≈ 22.1 µM) | 3.71 | 2.99 | – | – | –
12 | > 200 | 53.3 (≈ 115 µM) | COc1ccccc1NC(=O)c1c(Sc2ccc([N+](=O)[O-])cc2)cccc1N1CCOCC1 [Compound 63, N-(2-methoxyphenyl)-2-morpholino-6-((4-nitrophenyl)thio)benzamide] | > 200 | > 200 | – | >3.75 | – | – | –
13 | – | – | COc1ccccc1NC(=O)c1c(NCCBr)cccc1Sc1ccc([N+](=O)[O-])cc1 [Compound 64, 2-((2-bromoethyl)amino)-N-(2-methoxyp-henyl)-6-((4-nitrophenyl)thio)benzamide] | 17.8 (≈ 35.5 µM) | 10.4 (≈ 20.7 µM) | 0.85 | 3.28 | – | 21 (≈ 41.8 µM) | 3.17 (≈ 6.31 µM)
14 | – | – | COc1ccccc1NC(=O)c1c(NCP(=O)(OC(C)C)OC(C)C)cccc1Sc1ccc([N+](=O)[O-])cc1 [Compound 65, diisopropyl(((2-((2-methoxyphenyl)carbamoyl)-3-((4-nitro-phenyl)thio)phenyl)amino)methyl)phosphonate] | 25.4 (≈ 44.3 µM) | 18.8 (≈ 32.8 µM) | – | – | – | – | –
15 | – | – | Nc1cccc(Sc2ccc([N+](=O)[O-])cc2)c1C(=O)Nc1ccccc1I [Compound 71, 2-amino-N-(2-iodophenyl)-6-((4-nitrophenyl)thio)benzamide] | > 200 | > 200 | – | – | – | – | –
16 | – | – | Nc1cccc(S(=O)(=O)c2ccc([N+](=O)[O-])cc2)c1C(=O)Nc1ccccc1I [Compound 72, 2-amino-N-(2-iodophenyl)-6-((4-nitrophenyl)sulfonyl)benzamide] | > 200 | > 200 | – | – | – | – | –
17 | > 200 | 36.7 | CS(=O)(=O)Oc1ccccc1NC(=O)c1c(N)cccc1Sc1ccc([N+](=O)[O-])cc1 [Compound 73, 2-(2-amino-6-((4-nitrophenyl)thio)benzamildo)phenyl methanesulfonate] | > 200 | 194 | – | 5.28 | – | – | –
18 | > 200 | 7.26 (≈ 19.2 µM) | COc1ccccc1NC(=O)c1c(N)cccc1Sc1cc(C)cc(C)c1 [Compound 74, 2-amino-6-((3,5-dimethylphenyl)thio)-N-(2-methoxyphenyl)benzamide] | > 200 | 68.6 (≈ 181 µM) | – | 9.45 | – | – | –
19 | > 200 | > 200 | COc1ccccc1NC(=O)c1c(N)cccc1S(=O)(=O)c1cc(C)cc(C)c1 [Compound 75, 2-amino-6-((3,5-dimethylphenyl)sulfonyl)-N-(2-methoxyphenyl)benzamide] | > 200 | > 200 | – | – | – | – | –
20 | – | – | COc1ccccc1NC(=O)c1c(N)cccc1Sc1ccc(C(=O)O)cc1 [Compound 76, 4-((3-amino-2-((2-methoxyphenyl)carbamoyl)phenyl)thio)benzoic acid] | > 200 | > 200 | – | – | – | – | –
21 | – | – | COc1ccccc1NC(=O)c1c(N)cccc1S(=O)(=O)c1ccc(C(=O)O)cc1 [Compound 77, 4-((3-amino-2-((2-methoxyphenyl)carbamoyl)phenyl)sulfonyl)benzoic acid] | > 200 | > 200 | – | – | – | – | –
22 | 101 (≈ 214 µM) | 93.5 (≈ 199 µM) | COc1ccccc1NC(=O)c1c(NCCN)cccc1S(=O)(=O)c1ccc([N+](=O)[O-])cc1 [Compound 79, 2-((2-aminoethyl)amino)-N-(2-methoxyphenyl)-6-((4-nitrophenyl)sulfonyl)benzamide] | 99.5 (≈ 211 µM) | 90.9 (≈ 193 µM) | 0.99 | 0.97 | – | – | –
23 | 19.1 (≈ 43.6 µM) | 19.4 (≈ 44.2 µM) | COc1ccccc1NC(=O)c1c(NCCO)cccc1Sc1ccc([N+](=O)[O-])cc1 [Compound 80, 2-((2-hydroxyethyl)amino)-N-(2-methoxyphenyl)-6-((4-nitrophenyl)thio)benzamide] | 116 (≈ 265 µM) | 93.5 (≈ 213 µM) | 6.08 | 4.81 | – | – | –
24 | 102 (≈ 216 µM) | 89.1 (≈ 189 µM) | COc1ccccc1NC(=O)c1c(NCCO)cccc1S(=O)(=O)c1ccc([N+](=O)[O-])cc1 [Compound 81, 2-((2-hydroxyethyl)amino)-N-(2-methoxyphenyl)-6-((4-nitrophenyl)sulfonyl)benzamide] | 72.7 (≈ 154 µM) | 102 (≈ 217 µM) | 0.71 | 1.15 | – | – | –
25 | – | – | COc1ccccc1NC(=O)c1c(NCC(N)=O)cccc1Sc1ccc([N+](=O)[O-])cc1 [Compound 82, 2-((2-amino-2-oxoethyl)amino)-N-(2-methoxyphenyl)-6-((4-nitrophenyl)thio)benzamide] | > 200 | > 200 | – | – | – | – | –

Row | Structure (SMILES) | EC50 (HIV-1IIIB [3]; [5]) [µg/mL] | EC50 (HIV-1IIIB [4]; [6]) [µg/mL] | CC50 ([1]; H9 cells, read-out: CC50) [µg/mL] | CC50 [2] [µg/mL] | TI (HIV-1IIIB [3]; H9 cells) | TI (HIV-1IIIB [4]; C8166 cells) | CC50 [1] [µg/mL] | EC50 (HIV-1IIIB [3]; Human immunodeficiency virus 1, H9) [µg/mL] | EC50 (HIV-1IIIB [4]; Human immunodeficiency virus 1, C8166) [µg/mL]
26 | COc1ccccc1NC(=O)c1cc([N+](=O)[O-])ccc1Sc1ccc([N+](=O)[O-])cc1 [Compound 23, N-(2-methoxyphenyl)-5-nitro-2-(4-nitrophenylthio)benzamide] | > 200 | > 200 | > 200 | > 200 | – | – | – | – | –
27 | COc1ccccc1NC(=O)c1cc(NC(C)=O)ccc1Sc1ccc([N+](=O)[O-])cc1 [Compound 29, 5-acetamido-N-(2-methoxyphenyl)-2-((4-nitrophenyl)thio)benzamide] | > 200 | 73.5 (≈ 168 µM) | 74.6 (≈ 171 µM) | 110 (≈ 251 µM) | <0.37 | 1.49 | – | – | –
28 | COc1ccccc1NC(=O)c1c(Sc2ccc([N+](=O)[O-])cc2)cccc1[N+](=O)[O-] [Compound 52, N-(2-methoxyphenyl)-2-nitro-6-(4-nitrophenylthio)benzamide] | > 200 | – | > 200 | – | – | – | – | – | –
29 | Nc1ccccc1NC(=O)c1c(Sc2ccc([N+](=O)[O-])cc2)cccc1[N+](=O)[O-] [Compound 53, N-(2-aminophenyl)-2-nitro-6-(4-nitrophenylthio)benzamide] | 43.7 (≈ 106 µM) | – | > 200 | – | >4.58 | – | – | – | –
30 | O=C(O)c1cccc(NC(=O)c2c(Sc3ccc([N+](=O)[O-])cc3)cccc2[N+](=O)[O-])c1 [Compound 54, 3-(2-nitro-6-(4-nitrophenylthio)benzamildo)benzoic acid] | 83.9 (≈ 191 µM) | – | – | – | 1.02 | – | 85.8 (≈ 195 µM) | – | –
31 | Nc1ccc(NC(=O)c2c(Sc3ccc([N+](=O)[O-])cc3)cccc2[N+](=O)[O-])cc1 [Compound 55, N-(4-aminophenyl)-2-nitro-6-(4-nitrophenylthio)benzamide] | > 200 | > 200 | > 200 | > 200 | – | – | – | – | –
